From US20030109568A1 (CHEIL JEDANG Corporation, priority 2001, published 2003)

Tests used:
[1] = biological target: T1, cyclooxygenase-1 (Mus musculus, UniProt P22437); experiment: Cyclooxygenase-1 inhibition in mouse peritoneal macrophages (PGE2 ELISA); type: cell-based; conditions: for Inhibitory effects of cyclooxygenase (COX), COX-1: mouse peritoneal macrophages
T1 construct: endogenous in cells; host or cells: primary mouse peritoneal macrophages (unstimulated)
T1 sequence (P22437 27-602): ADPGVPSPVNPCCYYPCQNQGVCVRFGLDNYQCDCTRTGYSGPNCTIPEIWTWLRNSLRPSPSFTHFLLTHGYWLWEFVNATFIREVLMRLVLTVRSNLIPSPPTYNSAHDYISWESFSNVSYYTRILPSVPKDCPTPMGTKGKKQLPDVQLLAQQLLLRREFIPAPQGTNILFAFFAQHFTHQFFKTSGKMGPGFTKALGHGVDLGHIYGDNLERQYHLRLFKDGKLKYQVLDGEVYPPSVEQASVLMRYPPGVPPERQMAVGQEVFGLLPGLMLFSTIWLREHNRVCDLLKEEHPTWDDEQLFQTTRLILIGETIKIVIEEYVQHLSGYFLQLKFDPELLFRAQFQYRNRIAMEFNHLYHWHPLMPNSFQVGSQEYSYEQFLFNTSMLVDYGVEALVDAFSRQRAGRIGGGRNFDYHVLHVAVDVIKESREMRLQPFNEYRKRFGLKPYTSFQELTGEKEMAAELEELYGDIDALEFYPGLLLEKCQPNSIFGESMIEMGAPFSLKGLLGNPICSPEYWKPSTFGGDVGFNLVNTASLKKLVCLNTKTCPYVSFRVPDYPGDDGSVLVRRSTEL
Method: First of all, the cyclooxygenase-1 was examined through the following procedure.
Peritoneal fluid in which macrophages were suspended was extracted from a mouse peritoneal cavity and centrifuged at 4° C., 1,000 rpm for 2 minutes. Then, the supernatant was removed, suspended with 20 ml of incomplete RPMI medium [PC/SM (penicilin/streptomycin)] and again centrifuged under the same condition. […] Then, the cell number was calculated with the hemocytometer and adjusted to reach 1×10^6 cells/ml of cell concentration in the final cell suspension. 100 μl of the resulting suspension was transferred into each well of 96-well plate and left at 37° C. in 5% CO2 with the incubator for about 2 hours in order to attach macrophages. […] The resulting cell was cultivated in the incubator at 37° C. in 5% CO2 for about 12˜16 hours. Then, arachidonic acid was added, adjusting to 10 μM of a final concentration and incubated at 37° C. for more 10 minutes and the supernatant of the reacted solution (˜180 μl) was recovered to finish the reaction.

[2] = biological target: T2, cyclooxygenase-2 (Mus musculus, UniProt Q05769); experiment: Cyclooxygenase-2 inhibition in aspirin-treated, LPS-stimulated mouse peritoneal macrophages (PGE2 ELISA); type: cell-based; conditions: for Inhibitory effects of cyclooxygenase (COX), COX-2: LPS-stimulated mouse peritoneal macrophages
T2 construct: Peritoneal fluid suspended with macrophages was extracted from a mouse peritoneal cavity; endogenous in cells; host or cells: primary mouse peritoneal macrophages, pretreated with 500 µM aspirin and stimulated with 10 µg/ml LPS
T2 sequence (Q05769 18-604): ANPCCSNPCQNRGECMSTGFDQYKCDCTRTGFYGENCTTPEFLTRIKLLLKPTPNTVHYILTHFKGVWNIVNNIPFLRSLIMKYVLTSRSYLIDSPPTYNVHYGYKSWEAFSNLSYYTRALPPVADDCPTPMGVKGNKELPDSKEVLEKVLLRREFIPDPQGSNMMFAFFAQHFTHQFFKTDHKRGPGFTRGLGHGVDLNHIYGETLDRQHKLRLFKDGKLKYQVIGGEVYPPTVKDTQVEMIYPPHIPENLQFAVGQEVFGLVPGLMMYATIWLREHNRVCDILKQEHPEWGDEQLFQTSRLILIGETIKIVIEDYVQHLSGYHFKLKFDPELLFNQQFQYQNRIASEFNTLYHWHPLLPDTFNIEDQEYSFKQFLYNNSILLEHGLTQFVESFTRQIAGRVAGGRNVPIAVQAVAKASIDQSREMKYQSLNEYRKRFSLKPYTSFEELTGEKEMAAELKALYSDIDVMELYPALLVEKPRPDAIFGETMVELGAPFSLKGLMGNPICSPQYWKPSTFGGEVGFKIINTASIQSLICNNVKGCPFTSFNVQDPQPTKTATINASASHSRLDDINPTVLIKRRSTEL
Method: Second, the cyclooxygenase-2 was examined through the following procedure.
Peritoneal fluid suspended with macrophages was extracted from a mouse peritoneal cavity and centrifuged at 4° C., 1,000 rpm for 2 minutes. Then, the supernatant was removed, suspended using incomplete RPMI medium [PC/SM (penicilin/streptomycin)] and again centrifuged under the same condition. […] Then, the cell number was calculated with the hemocytometer and adjusted to reach 1×10^6 cells/ml of cell concentration in the final cell suspension. The resulting suspension was treated with aspirin, adjusting 500 μM of final concentration and transderred into each well of 96-well plate in 100 μl respectively. Again, it was left at 37° C. in 5% CO2 in the incubator for about 2 hours in order to attach macrophages. […] The resulting cell was cultivated in the incubator at 37° C. in 5% CO2 for about 12˜16 hours. Then, arachidonic acid was added, adjusting to 10 μM of a final concentration and incubated at 37° C. for more 10 minutes and the supernatant of the reacted solution (˜180 μl) was recovered to finish the reaction.

[3] = compared with comparative substance

Row | SMILES | Inhibitory effects of cyclooxygenase (COX), COX-1 ([1]; 3 μM) | Inhibitory effects of cyclooxygenase (COX), COX-1 ([1]; 10 μM) | Inhibitory effects of cyclooxygenase (COX), COX-1 ([1]; 30 μM) | inhibition effect against cyclooxygenase-1 (in words) [1, 3] | Inhibitory effects of cyclooxygenase (COX), COX-2 ([2]; 30 nM) | Inhibitory effects of cyclooxygenase (COX), COX-2 ([2]; 100 nM) | Inhibitory effects of cyclooxygenase (COX), COX-2 ([2]; 300 nM) | selectivity of cyclooxygenase-2 (in words) ([2]; COX-2 versus COX-1) | inhibition effect against cyclooxygenase-2 (in words) [2, 3]
1 | CS(=O)(=O)Nc1ccc2c(ccn2Cc2ccccc2)c1 [Example 7, N-(1-benzyl-1H-indole-5-yl)-methanesulfonamide] | 30.0 % inhibition | 44.1 % inhibition | 56.4 % inhibition | in much lower level than a comparative substance | 59.8 % inhibition | 70.6 % inhibition | 76.8 % inhibition | better than any other substances | more excellent than a comparative substance
2 | O=C(c1ccccc1)n1ccc2cc([N+](=O)[O-])ccc21 [Example 1, 1-benzoyl-5-nitro-1H-indole] | 33.2 % inhibition | 40.7 % inhibition | 45.8 % inhibition |  | ˜0 % inhibition | ˜0 % inhibition | ˜0 % inhibition |  | 
3 | CS(=O)(=O)Nc1ccc2c(ccn2Cc2ccc(F)cc2)c1 [Example 8, N-[1-(4-fluoro-benzyl)-1H-indole-5-yl]-methansulfonamide] | 7.6 % inhibition | 32.3 % inhibition | 53.9 % inhibition |  | 22.1 % inhibition | 28.6 % inhibition | 29.6 % inhibition |  | 
4 | CS(=O)(=O)Nc1ccc2c(ccn2C(=O)c2ccccc2)c1 [Example 9, N-(1-benzoyl-1H-indole-5-yl)-methanesulfonamide] | 22.8 % inhibition | 31.1 % inhibition | 42.1 % inhibition |  | 20.4 % inhibition | 25.5 % inhibition | 30.1 % inhibition |  | 
5 | Nc1ccc2c(ccn2C(=O)c2ccccc2)c1 [Example 6, 1-benzoyl-5-amino-1H-indole] | 52.3 % inhibition | 57.3 % inhibition | 64.8 % inhibition |  | 33.4 % inhibition | 46.6 % inhibition | 54.9 % inhibition |  | 
6 | O=[N+]([O-])c1ccc2c(ccn2Cc2ccc(F)cc2)c1 [Example 3, 1-(4-fluoro-benzyl)-5-nitro-1H-indole] | 60.4 % inhibition | 64.4 % inhibition | 74.6 % inhibition |  | 50.1 % inhibition | 58.8 % inhibition | 70.2 % inhibition |  | 
7 | CC(C)c1ccc(Cn2ccc3cc([N+](=O)[O-])ccc32)cc1 [Example 5, 1-(4-isopropyl-benzyl)-5-nitro-1H-indole] | 39.9 % inhibition | 47.1 % inhibition | 54.3 % inhibition |  | 51.2 % inhibition | 55.4 % inhibition | 61.4 % inhibition |  | 
8 | COc1ccc(Cn2ccc3cc([N+](=O)[O-])ccc32)cc1 [Example 4, 1-(4-methoxy-benzyl)-5-nitro-1H-indole] | 60.3 % inhibition | 71.1 % inhibition | 80.1 % inhibition |  | 55.4 % inhibition | 69.9 % inhibition | 81.5 % inhibition |  | 
9 | O=[N+]([O-])c1ccc2c(ccn2Cc2ccccc2)c1 [Example 2, 1-benzyl-5-nitro-1H-indole] | 56.7 % inhibition | 68.7 % inhibition | 80.4 % inhibition |  | 15.7 % inhibition | 20.7 % inhibition | 22.0 % inhibition |  | 
